Results on 1 molecule are retold here after patent publication US8563254B2, “Biomarkers of tumor pharmacodynamic response” (Novartis AG, priority 2009, dated 2013).

The test system of experiment [1] is A375 cells. Kind of experiment: Western blot of total protein lysates, A375. It counts as cell-based, human. The conditions noted are these: A375, 0.3 μM, 16 hr and 24 hr. The procedure: Total protein lysates were prepared from the GTL-16 and A375 cells with RIPA lysis buffer (Upstate, Millipore Corporation, Charlottesville, Va., USA). Cells were washed with PBS and 500 ul of ice-cold RIPA buffer, containing protease inhibitor cocktail tablet (Roche Diagnostic GmbH, Mannheim, Germany) and phosphatase inhibitors (Sigma-Aldrich, Inc., St. Louis, Mo., USA), was added to each plate on ice. After 15 min the cells were scrapped from the plate surface and spun at 16000 RPM for 10 min at 4° C. The supernatant was collected and frozen at −80° C. Nuclear protein fractions were prepared by the NE-PER nuclear and cytoplasmic extraction kit (Pierce Biotechnology, Rockford, Ill., USA). Proteins were quantified by bicinchoninic acid assay (Pierce Biotechnology, Rockford, Ill., USA) for Western blotting. Primary antibodies specific for NFκB p65, cREL, p-ERK1/2, p-c-jun, ERK1 and Jun were purchased from Santa Cruz Biotechnology (Santa Cruz Biotechnology, Inc., Santa Cruz, Calif., USA) with the exception of Hsp70 and TBP (nuclear loading control), which were obtained from StressGen (StressGen, Assay Designs, Inc., Aim Arbor, Mich., USA) and Abcam (Abcam Inc., Cambridge, Mass., USA), respectively. 4-12% Bis-Tris SDS-PAGE, denaturing, non-reducing gels were loaded with 30 μg of total protein, a SeeBlue2Plus pre-stained protein standard and MES SDS running buffer were utilized for the electrophoretic separation in a XCell SureLock™ Mini-Cell (Invitrogen Corporation, Inc., Carlsbad, Calif., USA). An iBlot™ gel transfer PVDF stack with iBlot™ gel transfer system (Invitrogen) was used. An Odyssey Infrared Imaging System was used to detect the immunocomplex (Li-COR Biotechnologies, Inc., Lincoln, Nebr., USA). Li-COR blocking buffer was used to limit cross-reactivity. Membranes were incubated at 4° C. overnight in the primary antibody diluted in blocking buffer, followed by 1 hr room temperature incubation with a secondary IgG antibody (Li-COR IR dye, Li-COR).
For orientation: Immunoblotting shows a protein as a band on a membrane.

The subject of experiment [2] is A375 cells. Nature of the experiment: Cell viability by CellTiter-Glo, A375. The class given is cell-based, human. The conditions noted are these: A375, 0.3 μM, 72 hr treatment time. How it is done:
Cell Viability was measured by CellTiter-Glo assay (Promega U.S., Madison, Wis., USA). GTL-16 and A375 cells were grown in 6-well poly-D-lysine coated plates (BD Biosciences). Cells were treated with NVP-AUY922. Cell viability was measured 16, 24, 48 and 72 hr post-treatment with Hsp90 inhibitor. Briefly supernatants were removed and cells were washed with 3 ml of PBS, pH 7.4. 1 ml of a two component CellTiter-Glo reagent was added to each well and the plates were shaken vigorously for 2 min, followed by 10 min incubation at room temperature in the dark. Luminescent signal intensity was recorded with an integration time set between 0.25 and 1 s/well.
(In ATP-based viability assays light output follows the ATP content of the culture.)

Experiment [3] relates to A375 cells. Nature of the experiment: Multiplexed bead-based 27-plex cytokine panel, A375 culture supernatants. The class given is cell-based, human. The note with it: 48 hr. The procedure:
(§1) A malignant melanoma cell line A375 (American Type Culture Collection, Manassas, Va., USA) and gastric cancer cell line, GTL-16 (Prof Silvia Giordano, Institute for Cancer Research and Treatment, Turin, Italy) were cultured in RPMI 1640 supplemented with 10% FBS and 1% penicillin-streptomycin at 37° C. in 5% CO2 (GIBCO reagents, Invitrogen Corporation, Carlsbad, Calif., USA). Cell numbers were determined by ViCell™ XR Cell Viability Analyzer 2.03 (Beckman Coulter, Inc., Fullerton, Calif., USA). Cells were seeded in poly-D-lysine coated plates (BIOCOAT Cell Environments, Becton Dickinson Biosciences, San Jose, Calif., USA).
(§2) Human IL-8 levels in cell culture supernatants treated with NVP-AUY922 were initially assessed as part of a multiplexed bead-based cytokine panel (hu 27-plex panel I, Bio-rad Laboratories, Hercules, Calif., USA) with a BioPlex Suspension Array System (Bio-rad). Human IL-8 and mouse KC levels in serum derived from GTL-16 and A375 tumor-bearing mice treated with NVP-AUY922 were measured by single-plex cytokine bead-based assay (Milliplex, Millipore, Billerica, Mass., USA). The BioPlex system uses a liquid suspension array of beads. The beads align in a single file through a flow cell to the detector, where a red classification laser at a wavelength of 635 nm and a green reporter laser at a wavelength of 532 nm are used to identify each bead's spectral address and associated reporter signal, respectively.
(§3) In a screen for candidate secreted markers of Hsp90 inhibition, cell culture supernatants were collected from GTL-16 gastric carcinoma and A375 melanoma cells that were washed and treated for 48 hr with 1 μM NVP-AUY922 in fresh culture medium. These samples were analyzed by a multiplexed cytokine bead-based assay that included a panel of 27 human cytokines, the results of which are shown in FIG. 1. […] In addition to this empirical investigation using the bead-based immunoassay panel, in silica data mining was undertaken to identify secreted proteins that were regulated by previously reported Hsp90 client proteins; this investigation pointed to a number of candidates, including IL-8, consistent with the empirical results.

The next experiment concerns tumor-bearing mice. Kind of experiment: Serum IL-8 in tumor-bearing mice, summary of both models. The conditions noted are these: single dose. It counts as in vivo. The procedure: The in vivo study was carried out in strict accordance with Swiss law for animal protection and was approved by the Swiss Cantonal Veterinary Office of Basel-Stadt. GTL-16 (4×10^6) and A375 cells (5×10^6) were inoculated subcutaneously in the right flank in 200 μl Hanks' balanced salt solution (HBSS) or PBS, respectively. Invasive procedures were performed under Forene anesthesia. All experiments were performed in female Harlan HsdNpa: Athymic Nude-nu mice (Laboratory Animal Services, Novartis Pharma AG, Basel). The animals were kept under optimized hygienic conditions with 12 hr dark, 12 hr light conditions. The animals were fed food and water ad libitum. A single 75 mg/kg and 50 mg/kg dose of Hsp90 inhibitor, NVP-AUY922 was administered to the GTL-16 and A375 tumor-bearing mice, when tumors had reached a mean volume of 200 mm^3-500 mm^3 in size. Mice in the control group were injected with the vehicle (D5W). […]
Human IL-8 levels in cell culture supernatants treated with NVP-AUY922 were initially assessed as part of a multiplexed bead-based cytokine panel (hu 27-plex panel I, Bio-rad Laboratories, Hercules, Calif., USA) with a BioPlex Suspension Array System (Bio-rad). Human IL-8 and mouse KC levels in serum derived from GTL-16 and A375 tumor-bearing mice treated with NVP-AUY922 were measured by single-plex cytokine bead-based assay (Milliplex, Millipore, Billerica, Mass., USA). […]

The test system of a further experiment is GTL-16 cells. Kind of experiment: Multiplexed bead-based 27-plex cytokine panel, GTL-16 culture supernatants. The note with it: 48 hr. The class given is cell-based, human. The procedure:
as §1, §2, §3

`CCNC(=O)c1noc(-c2cc(C(C)C)c(O)cc2O)c1-c1ccc(CN2CCOCC2)cc1` [NVP-AUY922, 5-(2,4-Dihydroxy-5-isopropyl-phenyl)-4-(4-morhpolin-4-ylmethyl-phenyl)-isoxazole-3-carboxylic acid ethylamide]: in the experiment with A375 cells [1], the Hsp70 induction result is on record as “induction was observed”; the “levels of phospho-ERK1/2 and phospho-c-Jun” value is “significantly diminished”; the “total ERK and c-Jun levels” value is on record as “unaffected”; the “total cellular levels of NFκB p65 and c-REL” value is “essentially unchanged”. For the same molecule, the “cell viability over time” value in the experiment with A375 cells [2] is given as “steadily declines”. In addition, in the experiment with A375 cells [3] (A375, 1 μM), the IL-2 levels entry is given as “increased”; the “accumulation of IL-1ra, IL-8, MCP-1 (MCAF) and VEGF” value is given as “decreased accumulation”; the “accumulation of other detectable cytokines” value is reported as “remained unchanged”. Also, the IL-8 accumulation decreased in the experiment with A375 cells [3] (A375 culture supernatant, 1 μM, multiplexed assay) is on record as greater than 70%. Further, in the experiment with tumor-bearing mice, the “transient decrease in serum IL-8 levels” value is 40-70%. Also, in the experiment with GTL-16 cells (GTL-16, 1 μM), the “accumulation of FGF basic and MIP-1b” value is listed as “virtually unchanged”; the “accumulation of IL-1ra, IL-8, IL-17, Eotaxin, GM-CSF, IP-10, PDGF-bb and VEGF” value is “decreased accumulation”; the “accumulation of IL-15” value was “increased accumulation”. For the same molecule, in the experiment with GTL-16 cells (GTL-16 culture supernatant, 1 μM, multiplexed assay), the IL-8 accumulation decreased result is listed as “more than 80%”.
